Here are results for 17 compounds from ChEMBL document CHEMBL4706699, “Novel (R)-6,6a,7,8,9,10-hexahydro-5H-pyrazino[1,2-a][1,n]naphthyridines as potent and selective agonists of the 5-HT receptor” (Bioorg Med Chem Lett, 2021).

One data set addresses 5-HT2A receptor (Homo sapiens, UniProt P28223). Briefly: Agonist activity at 5-HT2AR (unknown origin) transfected in human HEK293 cells at 10 uM by IP3 accumulation assay relative to control. The note with it: HEK293 cells transfected with 5-HT2AR. The data set is classed as cell-based.
Data set [1] has as its target T1, 5-hydroxytryptamine receptor 2A (Homo sapiens, UniProt P28223). The data set is described as follows: Agonist activity at 5-HT2AR (unknown origin) transfected in human HEK293 cells by IP3 accumulation assay. The data set is classed as cell-based.
In data set [2] the target is T2, 5-hydroxytryptamine receptor 2B (Homo sapiens, UniProt P41595). The data set is described as follows: Agonist activity at 5-HT2BR (unknown origin) transfected in human HEK293 cells by IP3 accumulation assay. The data set is classed as cell-based.
Another data set deals with 5-HT2B receptor (Homo sapiens, UniProt P41595). Briefly: Agonist activity at 5-HT2BR (unknown origin) transfected in human HEK293 cells at 10 uM by IP3 accumulation assay relative to control. The data set is classed as cell-based. To be noted: HEK293 cells transfected with 5-HT2BR.
The target in data set [3] is T3, 5-hydroxytryptamine receptor 2C (Homo sapiens) (UniProt P28335).
T3 sequence (whole entry): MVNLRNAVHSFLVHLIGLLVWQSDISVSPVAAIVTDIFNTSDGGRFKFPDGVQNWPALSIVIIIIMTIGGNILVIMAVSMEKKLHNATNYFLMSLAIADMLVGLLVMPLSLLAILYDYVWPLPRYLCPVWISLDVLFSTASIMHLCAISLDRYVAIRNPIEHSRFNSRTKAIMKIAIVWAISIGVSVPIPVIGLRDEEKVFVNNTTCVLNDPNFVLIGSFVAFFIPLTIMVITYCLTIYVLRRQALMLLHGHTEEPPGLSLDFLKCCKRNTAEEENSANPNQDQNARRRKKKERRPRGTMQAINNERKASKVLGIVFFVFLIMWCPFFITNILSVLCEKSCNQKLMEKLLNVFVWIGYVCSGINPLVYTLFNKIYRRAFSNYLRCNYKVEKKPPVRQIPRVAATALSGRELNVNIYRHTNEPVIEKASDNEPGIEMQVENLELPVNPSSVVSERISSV
Briefly: Agonist activity at 5-HT2CR (unknown origin) transfected in human HEK293 cells at 10 uM by IP3 accumulation assay relative to control. The note with it: filed as agonist. The format is functional, cell-based.

For data set [4], the target named is T4, 5-hydroxytryptamine receptor 2C (Homo sapiens, UniProt P28335).
T4 sequence (P28335 whole entry): T3 sequence (whole entry)
Briefly: Agonist activity at 5-HT2CR (unknown origin) transfected in human HEK293 cells by IP3 accumulation assay. The format is functional, cell-based.

The target in data set [5] is T4, 5-hydroxytryptamine receptor 2C. Briefly: Displacement of [125I]-DOI from recombinant human 5HT2CR transfected in human HEK293 cells incubated for 45 mins by radioligand binding assay. The format is cell-based. Background: In a radioligand displacement assay an active substance lowers the binding of a labelled ligand.
Data set [6] addresses T2, 5-hydroxytryptamine receptor 2B. The data set is described as follows: Displacement of [3H]-[…] from recombinant human 5HT2BR transfected in human HEK293 cells incubated for 45 mins by radioligand binding assay. The format is cell-based.
In data set [7] the target is T1, 5-hydroxytryptamine receptor 2A. Briefly: Displacement of [3H]-DOI from recombinant human 5HT2AR transfected in human HEK293 cells incubated for 45 mins by radioligand binding assay. The data set is classed as cell-based.
A short description of data set [8]: Metabolic stability in rat liver microsomes assessed as parent compound remaining at 1 uM incubated for 45 mins. The data set is classed as ADME, Microsome. To be noted: read-out: Stabilty.
Data set [9] can be described thus: Metabolic stability in human liver microsomes assessed as parent compound remaining at 1 uM incubated for 45 mins. The format is ADME, Microsome. The note with it: read-out: Stabilty. In general terms: Liver microsomes are a subcellular fraction often used to study metabolism.
A short description of data set [10]: Oral bioavailability in Sprague-Dawley rat. The format is ADME, organism-based. To be noted: in vivo.
Data set [11] is described as follows: Half life in po dosed Sprague-Dawley rat. The format is ADME, organism-based. To be noted: in vivo.
Data set [12] in a line: Ratio of unbound drug level in po dosed Sprague-Dawley rat brain to plasma measured after 2 hrs. The data set is classed as ADME, organism-based. The note with it: read-out: K(p,uu,brain).
Data set [13] can be described thus: (§1) In vivo agonist activity at 5HT2CR in po dosed Sprague-Dawley rat assessed as reduction in food intake measured at 1 hr. The format is functional.
The next data set has as its system Rattus norvegicus. The data set is described as §1. The format is functional.

A value given as a limit tells only on which side of the number the result lay.

5-HT2B receptor, sequence (P41595 whole entry): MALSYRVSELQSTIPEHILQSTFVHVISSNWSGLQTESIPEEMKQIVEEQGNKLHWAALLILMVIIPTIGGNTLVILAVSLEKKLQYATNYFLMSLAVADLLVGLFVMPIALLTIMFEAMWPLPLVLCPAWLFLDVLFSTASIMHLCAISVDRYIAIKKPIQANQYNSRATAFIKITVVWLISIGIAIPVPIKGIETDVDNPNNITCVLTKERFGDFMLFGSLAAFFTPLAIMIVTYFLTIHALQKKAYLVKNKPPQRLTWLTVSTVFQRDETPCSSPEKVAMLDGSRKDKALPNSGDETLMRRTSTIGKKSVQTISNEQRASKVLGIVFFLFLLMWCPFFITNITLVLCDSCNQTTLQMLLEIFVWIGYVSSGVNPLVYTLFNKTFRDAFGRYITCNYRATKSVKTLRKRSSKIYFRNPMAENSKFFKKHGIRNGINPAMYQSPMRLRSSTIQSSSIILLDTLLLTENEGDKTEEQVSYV
T2 sequence (P41595 whole entry): as above
T1 sequence (P28223 whole entry): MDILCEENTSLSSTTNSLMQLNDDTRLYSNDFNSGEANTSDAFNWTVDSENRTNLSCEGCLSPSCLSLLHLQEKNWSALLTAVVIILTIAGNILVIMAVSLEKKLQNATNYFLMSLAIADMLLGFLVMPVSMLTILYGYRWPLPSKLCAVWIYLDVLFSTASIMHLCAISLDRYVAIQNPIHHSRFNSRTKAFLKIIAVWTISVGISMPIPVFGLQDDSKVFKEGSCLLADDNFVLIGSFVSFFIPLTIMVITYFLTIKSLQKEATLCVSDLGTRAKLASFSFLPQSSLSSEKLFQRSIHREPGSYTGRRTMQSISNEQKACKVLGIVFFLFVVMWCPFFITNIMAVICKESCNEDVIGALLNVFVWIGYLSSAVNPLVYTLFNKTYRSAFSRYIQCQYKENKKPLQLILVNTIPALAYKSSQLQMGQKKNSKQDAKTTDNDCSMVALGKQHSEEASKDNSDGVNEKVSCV
5-HT2A receptor, sequence (P28223 whole entry): as above

Broadly, the Emax is the maximal effect, on the per cent scale that the assay sets. In general, EC50 refers to the midpoint of the concentration-response curve. For orientation: Ki means the equilibrium dissociation constant of an inhibitor or competing ligand from its target. Take `CCCc1cccc2c1CC[C@@H]1CNCCN21`: the Emax at 10 µM is 74% at 5-HT2A receptor and 82% at 5-HT2B receptor. The EC50 in data set [1] is 158 nM; in data set [2], 100 nM; in data set [4], 0.2 nM. In data set [3], this compound came in with an Emax of 107%. In addition, the Ki in data set [5] is 0.316 nM; in [6], 12.6 nM; in data set [7], 5.01 nM. Also, the remaining at 0.75 h, 1 µM was 38% in data set [8] and 13% in [9].
As for `c1ccc(Cc2cncc3c2CC[C@@H]2CNCCN32)cc1`, the EC50 in data set [2] was over 10000 nM; in [4] it was 0.631 nM. Moreover, in data set [3], the Emax was 110%. Moreover, the Ki in data set [5] is 0.501 nM; in [6], 251 nM.
Take `COCc1ccnc2c1CC[C@@H]1CNCCN21`: the Emax at 10 µM on 5-HT2B receptor was 38%. This compound displayed an Emax in data set [3] of 109%.
Regarding `CCCc1ccnc2c1CC[C@@H]1CNCCN21`, on 5-HT2B receptor, the maximal response (Emax) at 10 µM was 54%. For the same compound, in data set [3], the Emax turned out to be 99%. A half-maximal effect in [4] (EC50) was put at 0.0631 nM. The Ki in data set [5] was 0.158 nM; in [7] it was 6.31 nM. Besides, the remaining at 0.75 h, 1 µM in [8] came to 27%; in [9], 29%.
Take `FC(F)(F)CCc1cccc2c1CC[C@@H]1CNCCN21`: the results for the Emax at 10 µM at 5-HT2A receptor and on 5-HT2B receptor were 114% and 48%, respectively. The EC50 is 1000 nM in data set [1], 3160 nM in [2] and 3.16 nM in data set [4]. In addition, in data set [3], the Emax was determined as 95%. The inhibitory constant (Ki) in [5] is 2 nM; in [6], 100 nM; in [7] it was 20 nM. Moreover, the remaining at 0.75 h, 1 µM was 23% in data set [8] and 81% in data set [9].
On to `c1cnc2c(c1)CC[C@@H]1CNCCN21`, for which the EC50 is over 10000 nM in data set [1], 63.1 nM in data set [2] and 100 nM in data set [4]. The Emax at 10 µM at 5-HT2B receptor came out at 19%. In addition, the Emax in data set [3] was determined as 92%.
At 5-HT2B receptor, `c1cc(CC2CCC2)c2c(n1)N1CCNC[C@H]1CC2` gave an Emax at 10 µM of 17%. Moreover, the Emax in data set [3] was 108%. Also, the remaining at 0.75 h, 1 µM was determined as 67% in data set [8] and 78% in data set [9].
For `c1cc2c(cn1)N1CCNC[C@H]1CC2`, the EC50 in [1] is over 10000 nM; in data set [2], 794 nM; in [4], 316 nM. Further, the maximal effect (Emax) at 10 µM on 5-HT2B receptor is 28%. In addition, the Emax in [3] worked out at 98%.
As for `CC(C)Cc1ccnc2c1CC[C@@H]1CNCCN21`, the EC50 in data set [2] is 316 nM; in [4] it was 0.398 nM. The compound also yielded an Emax at 10 µM on 5-HT2B receptor of 22%. The compound also had an Emax in data set [3] of 102%. Further, the Ki in [5] is 0.631 nM; in data set [6], 31.6 nM. Besides, the remaining at 0.75 h, 1 µM in data set [8] came out at 24%; in [9] it was 14%.
In general, bioavailability refers to the share of a dose that reaches the circulation, judged against a reference dose that is usually intravenous. Low values mean little systemic uptake, high ones much systemic uptake. As a reminder, the half-life is how long it takes for the measured level to halve. A low value points to rapid decline. For orientation: ED50 means the dose that gives a 50% effect, or the effect in half of the subjects. With `FC(F)(F)CCc1ccnc2c1CC[C@@H]1CNCCN21`, the Emax at 10 µM on 5-HT2A receptor was determined as 134%; at 5-HT2B receptor, 31%. The compound further displayed an Emax in [3] of 97%. Further, the remaining at 0.75 h, 1 µM was 80% in [8] and 100% in [9]. Besides, the bioavailability in data set [10] was found to be 54%. In data set [11], this compound had a half-life of 2.9 h. Besides, the Kp uu at 2 h in data set [12] came to 1.3. In addition, the ED50 in [13] came out at 0.7 mg/kg. For the same compound, the Activity entry in the data set with Rattus norvegicus is “Dose-dependent effect”.
With `CCCc1cncc2c1CC[C@@H]1CNCCN21`, the Emax in data set [3] stood at 106%. In addition, in data set [7], the Ki was 39.8 nM. The remaining at 0.75 h, 1 µM in [8] came out at 14%; in data set [9], 5%.
Take `c1cc2c(c(CC3CCC3)n1)CC[C@@H]1CNCCN21`: the EC50 in data set [1] was over 10000 nM; in data set [2] it was over 10000 nM; in data set [4] it was over 1000 nM.
Turning to `Cc1ccnc2c1CC[C@@H]1CNCCN21`, the Emax at 10 µM at 5-HT2B receptor is 52%. The compound also returned an Emax in data set [3] of 102%.
For the compound `Clc1ccnc2c1CC[C@@H]1CNCCN21`, the Emax at 10 µM on 5-HT2A receptor is 90%; at 5-HT2B receptor, 62%. The EC50 in [1] is 1260 nM; in [2], 50.1 nM; in [4], 5.01 nM. The same compound returned an Emax in data set [3] of 99%.
Turning to `c1ccc(Cc2ccnc3c2CC[C@@H]2CNCCN32)cc1`, the Emax at 10 µM at 5-HT2A receptor is 114%; on 5-HT2B receptor, 25%. Moreover, the EC50 is 50.1 nM in data set [1] and 0.126 nM in [4]. The compound further yielded an Emax in [3] of 107%. Moreover, the Ki in data set [5] is 0.251 nM; in data set [7] it was 1.26 nM.
Turning to `c1cc(C2CC2)c2c(n1)N1CCNC[C@H]1CC2`, the Emax at 10 µM on 5-HT2A receptor turned out to be 117%; on 5-HT2B receptor it was 34%. Moreover, the values for the EC50 in data set [1], in data set [2] and in data set [4] were 398 nM, 15.8 nM and 6.31 nM, respectively. Also, the Emax in data set [3] was 99%.
On to `c1cc2c(cn1)CC[C@@H]1CNCCN21`, for which the EC50 in [1], in data set [2] and in data set [4] was over 10000 nM throughout.
